Entries after “also recorded” stand apart in the source; their conditions may differ.
How the values were obtained:
MonoMac6 (MM6) cells = assay: NFκB nuclear translocation in MonoMac6 cells (ImageStream); format: cell-based, human
Description: MonoMac6 Cells in exponential growth are stimulated with increasing concentrations of AGP diluted in 2% glycerol vehicle for the indicated time points. Immediately fixed cells (in 2% paraformalin overnight) are stained with the primary antibodies, anti-NFκB(p65) (SantaCruz Biotechnology, SantaCruz, Calif.) and anti-IRF3 (BD Biosciences, San Jose, Calif.), in permeabilization buffer (PBS, 2% FBS, 0.1% TritonX) followed by secondary antibodies, anti-Rabbit FITC (Jackson Labs, Bar Harbor, Me.), anti-mouse PE (BD Biosciences, San Jose, Calif.). Similarity scores of signaling protein localization with the nuclear stain DRAQ5 (Alexis Biochemicals (San Diego, Calif.) are used for ImageStream analysis of Nuclear Translocation as previously described {George, 2006 32669/id}. A minimum of 3000 cells are collected and analyzed for each condition tested.
Interferon […] Factor-3 (IRF-3) is a transcription factor activated downstream of the TRIF-dependent TLR4 signaling pathway (Yamamoto et al. 640-43). IRF-3 phosphorylation leads to IRF-3 dimerization, nuclear translocation, and induction of transcription of Type I interferon (IFNβ) and interferon-inducible genes (Honda, Takaoka, and Taniguchi 349-60; Tailor, Tamura, and Ozato 134-40). The ImageStream is capable of measuring nuclear translocation of both NFκB and IRF-3 by quantification of co-localization between the labeled transcription factors and the nucleus of cells stained with a nucleus-specific dye ([…]) (Beum et al. 90-99; George et al. 117-29; Arechiga et al. 7800-04).
In order to compare signaling initiated by CRX-527 and CRX-547, the induction of nuclear translocation of NFκB and IRF-3 by CRX-527 and CRX-547 treatment is compared in the human monocytic cell line, MonoMac6 (MM6) using ImageStream analysis.
To determine whether CRX-547 is able to antagonize NFκB nuclear translocation in cells treated with constant CRX-527, MM6 cells are stimulated for 20 minutes, 35 minutes and 2 hrs with increasing doses of CRX-547 (FIG. 12). When AGPs are added at the same time, CRX-547 antagonized NFκB nuclear translocation induced by CRX-527 at the highest doses. When CRX-547 is constant and spiked with CRX-527 into the assay, CRX-527 stimulation is able to overcome the maximal effect of NFκB nuclear translocation with CRX-547 alone.

human TLR4, MD-2, CD14 = molecular target: T1, human TLR4, MD-2, CD14 (Homo sapiens, UniProt O00206+Q9Y6Y9); assay: NF-κB reporter activity in HEK293 cells transfected with human TLR4/MD-2/CD14; format: cell-based; settings: HEK293 huTLR4/huMD-2/huCD14, NFκB reporter plasmid
T1 construct: host or cells: HEK293-hTLR4/hMD2/hCD14
T1 sequence (O00206 24-839): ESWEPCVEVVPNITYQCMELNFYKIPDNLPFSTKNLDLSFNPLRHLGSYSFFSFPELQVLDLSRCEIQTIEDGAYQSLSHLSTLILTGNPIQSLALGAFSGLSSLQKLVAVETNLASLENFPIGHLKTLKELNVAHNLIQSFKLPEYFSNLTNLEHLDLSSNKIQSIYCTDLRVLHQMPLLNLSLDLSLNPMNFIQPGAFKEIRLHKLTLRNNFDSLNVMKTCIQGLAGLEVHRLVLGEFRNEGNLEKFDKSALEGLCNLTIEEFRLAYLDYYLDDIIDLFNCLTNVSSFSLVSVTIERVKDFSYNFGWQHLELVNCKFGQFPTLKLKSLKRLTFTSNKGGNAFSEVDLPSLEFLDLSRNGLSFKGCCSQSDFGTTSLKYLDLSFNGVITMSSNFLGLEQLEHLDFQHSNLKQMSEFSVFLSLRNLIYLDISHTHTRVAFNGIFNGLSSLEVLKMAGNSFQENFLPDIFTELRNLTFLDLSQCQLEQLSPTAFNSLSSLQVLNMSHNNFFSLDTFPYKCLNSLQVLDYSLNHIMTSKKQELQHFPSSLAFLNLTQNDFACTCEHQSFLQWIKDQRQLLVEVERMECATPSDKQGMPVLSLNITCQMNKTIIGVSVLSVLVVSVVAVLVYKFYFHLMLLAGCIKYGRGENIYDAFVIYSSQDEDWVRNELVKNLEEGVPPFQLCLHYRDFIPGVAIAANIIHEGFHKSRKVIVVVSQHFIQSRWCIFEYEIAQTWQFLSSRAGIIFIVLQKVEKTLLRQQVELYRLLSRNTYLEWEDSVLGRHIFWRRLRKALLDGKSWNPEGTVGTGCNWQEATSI
T1 sequence (Q9Y6Y9 19-160): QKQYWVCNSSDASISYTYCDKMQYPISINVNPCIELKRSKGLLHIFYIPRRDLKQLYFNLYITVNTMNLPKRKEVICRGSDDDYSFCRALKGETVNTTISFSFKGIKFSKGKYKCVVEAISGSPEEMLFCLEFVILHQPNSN
Description: HEK293-hTLR4/hMD2/hCD14 cells are seeded in 12-well plates (4×10^5 cells/well) and are cultured until 40-60% confluent (2-3 days). The cells are transfected for 24 hours with 100 ng of NF-κB reporter construct expressing secreted human embryonic alkaline phosphatase under the control of an engineered ELAM promoter with five NF-κB sites (pNiFty2-SEA-InvivoGen; San Diego, Calif.) and a transfection control plasmid constitutively expressing a thymidine kinase promoter driven luciferase (Promega). […] After transfection, cells are stimulated for 14 h with TLR4 agonists, and the cleared supernatant is assayed for SEAP activity (SEAP Reporter Assay Kit-InvivoGen) to quantify NF-κB activation and luciferase activity (Promega) to normalize for transfection efficiency following supplied protocols.

human primary monocytes = assay: Western blot of human primary monocytes (IRAK-1, IRF-3); format: cell-based; settings: Western blot time course
Description: For Western blot and phospho-Western blot protein analysis, cells are lysed with Cell Lysis Buffer (Cell Signaling Technology, Danvers, Mass.) with Protease Inhibitor Cocktail (Sigma, St. Louis Mo.). Western Blot on PVDF membranes (Millipore) is performed using standard methods. Bands are detected with ECL Advance Western Blot kit (GE Healthcare, Piscataway, N.J.). Secondary Anti-Rabbit HRP antibody is obtainable from KPL, (Gaithersburg, Md.). Anti-βactin, anti-IRF-3, anti-phospho-IRF-3 (Ser396) and anti-IRAK1 antibodies are obtained from Cell Signaling Technology (Danvers, Mass.).
Degradation of the Serine/Threonine Kinase, IRAK-1, occurs downstream of MyD88-dependent TLR4 signaling (Hatao et al, 260-64; Neumann et al. 1089-94), while TRIF-dependent TLR4 signaling results in IRF-3 activation (Yamamoto et al. 6668-72; Yamamoto et al. 640-43). Here, human primary monocytes are stimulated with either CRX-547 or CRX-527 for the indicated times, and cellular lysates are analyzed by Western Blot for the levels of the MyD88 pathway-activated kinase, IRAK-1, and the TRIF pathway-activated transcription factor, IRF-3 (phospho-IRF-3 and total IRF-3). The levels of β-actin is used as the loading control.

[1] = Induction of serum cytokines/chemokines in mice; format: in vivo, mouse; settings: C57BL/6 mice, 2 or 6 hours post injection
Description: Female BALB/c or C57B1/6 mice are obtained from Charles River Laboratories, USA, and are 7 to 9 weeks of age when the experiments are initiated. Mice are injected intraperitoneally with 200 uL of agonist in vehicle (0.2% glycerol) or vehicle alone. Serum samples are drawn at 2 or 6 hours post-injection and are tested for induction of cytokines/chemokines by multiplex sandwich ELISA (Invitrogen) on the Luminex platform. All animals are used in accordance with guidelines established by the Public Health Service and the Institutional Animal Care and Use Committee at GlaxoSmithKline Biologicals, Hamilton, Mont.
To ensure that this response is not specific to BALB/c mice, a similar test of serum cytokine induction in C57BL/6 mice is carried out. (FIG. 16). The kinetics (induction at 2 or 6 hours post injection) and magnitude of cytokine induction are similar for CRX-527 and CRX-547 for both MyD88-dependent (TNFα, IL-10) and TRIP-dependent (RANTES, IP-10, MIG) cytokines/chemokines, although the relative induction by CRX-547 is slightly less for select cytokines than that seen in BALB/c (not shown). […]

[2] = molecular target: T2, human TLR4 and murine MD-2 (UniProt O00206+Q9JHF9); assay: NFκB promoter activity in HEK293 cells with chimeric human TLR4 and murine MD-2; format: cell-based, human/mouse; settings: HEK293 huTLR4/muMD-2
T2 construct: expressed in transfected cells; host or cells: HEK293
T2 sequence (O00206 24-839): as the sequence (O00206 24-839) above
T2 sequence (Q9JHF9 19-160): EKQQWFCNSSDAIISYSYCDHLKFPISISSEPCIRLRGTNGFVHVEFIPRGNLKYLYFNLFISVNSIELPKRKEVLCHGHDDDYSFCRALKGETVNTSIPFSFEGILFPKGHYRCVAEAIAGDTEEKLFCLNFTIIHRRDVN

[3] = tested on: human PBMC-derived monocytes; assay: Cytokine/chemokine gene expression (qPCR time course) in human PBMC-derived monocytes; format: cell-based; settings: for time of highest IFNβ gene induction: qPCR time course
Description: Initial experiments include time course analysis of MyD88- and TRIF-dependent cytokine gene induction using qPCR.

PBMCs from BALB/c mice = assay: Cytokine induction in PBMCs from BALB/c mice; format: cell-based, mouse; settings: CRX-527 versus CRX-547; experiment performed once
Description: To determine whether PBMCs from mouse blood have similar profiles of MyD88 cytokines after CRX-527 or CRX-547 treatment, commercially available blood from BALB/c mice is tested with CRX-527 or CRX-547. (FIG. 24), Levels appear to be similar between the two groups tested.

Compound	earliest NFκB nuclear translocation post-stimulation (MonoMac6 (MM6) cells; MM6 cells)	NFκB nuclear translocation (MonoMac6 (MM6) cells; MM6 cells, by thirty minutes)	NF-κB promoter/reporter activation (human TLR4, MD-2, CD14)	IRAK-1 level (MyD88 pathway) (human primary monocytes)	kinetics and magnitude of serum cytokine induction (TNFα, IL-10, RANTES, IP-10, MIG) [1]	induction of promoter activity, CRX-527 versus CRX-547 [2]	MyD88-dependent cytokine/chemokine gene expression [3]	TRIF-dependent cytokine/chemokine gene expression [3]	time of highest IFNβ gene induction [3]	MyD88 cytokine levels (PBMCs from BALB/c mice)	effect on NFκB nuclear translocation induced by CRX-527 (MonoMac6 (MM6) cells; MM6, AGPs added at the same time, highest doses of CRX-547)	NFκB nuclear translocation, threshold never exceeded (MonoMac6 (MM6) cells; MM6 cells, 5-120 minutes)
CCCCCCCCCCCC(CC(=O)NC(COC1OC(CO)C(OP(=O)(O)O)C(OC(=O)CC(CCCCCCCCCCC)OC(=O)CCCCCCCCC)C1NC(=O)CC(CCCCCCCCCCC)OC(=O)CCCCCCCCC)C(=O)O)OC(=O)CCCCCCCCC.CCN(CC)CC (stereo not drawn) [CRX-527]	≤ 5 min	~100%	significantly higher activation	rapid decrease; also recorded: greater degradation	similar	large relative difference	greater	greater	1 h	similar		
CCCCCCCCCCCC(CC(=O)NC(COC1OC(CO)C(OP(=O)(O)O)C(OC(=O)CC(CCCCCCCCCCC)OC(=O)CCCCCCCCC)C1NC(=O)CC(CCCCCCCCCCC)OC(=O)CCCCCCCCC)C(=O)O)OC(=O)CCCCCCCCC.CCN(CC)CC (stereo not drawn) [CRX-547]			less NFκB reporter activity	delayed and reduced degradation	similar	large relative difference			1 h	similar	antagonized	around 50%

Source: US8629116B2, “Method for inducing a TRIF-bias” (priority 2008, dated 2014)
